In PubChem BioAssay (NCI):
Several values for one entry are separate records, joined by “and”; a condition that tells them apart may be missing. Identical values can stand only once.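 These data come from cells grown in 96-well plates and exposed to compound for 48 hours at five concentrations. The concentration for 50% growth inhibition is given as GI50. TGI denotes the concentration required for complete inhibition of growth.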

tested on: MDA-MB-468 breast; assay: DTP human tumour cell line panel, 48 h

Compound	GI50	TGI
CCN(CC)CCCCCCNc1cc(OC)cc2cccnc12	1.93 µM	3.8 µM
CCCCCO/N=C\c1c2c(O)c3c(O)c(C)c4c(c3c1O)C(=O)C(C)(O/C=C\C(OC)C(C)C(OC(C)=O)C(C)C(O)C(C)C(O)C(C)/C=C\C=C(\C)C(=O)N2)O4 (configuration not stated)	2.17 µM	6.33 µM
O=C(/C=C/c1cccc(O)c1)c1cccc(-n2cc(-c3ccccc3)[nH]c2=O)c1	2.46 µM	7.7 µM
CC(C)(O)CNc1nc(Nc2ccnc(C(F)(F)F)c2)nc(-c2cccc(C(F)(F)F)n2)n1	18 µM	38.5 µM
C#CCNC(=O)[C@H](CC)[C@H]1CC[C@H](C)[C@H]([C@@H](C)[C@H](O)[C@H](C)C(=O)[C@H](CC)C2O[C@]3(C=CC(=O)[C@]4(CC[C@@](C)([C@H]5CC[C@](O)(CC)[C@H](C)O5)O4)O3)[C@H](C)C[C@@H]2C)O1 (some centres not stated)	2.51 µM	21.5 µM
COC1=C(OC)C(=O)C(SC/C=C(\C)CCCC(C)CCCC(C)CCCC(C)C)=CC1=O (configuration not stated)	3.33 µM	> 100 µM
Oc1ccc(C(c2ccc(O)cc2)c2ccc(Br)cn2)cc1	0.234 µM	0.637 µM
CCCCCCNC(=O)Oc1ccc(/C(=C(\C)c2ccc(Cl)cc2)c2ccc(OCCN3CCCCC3)cc2)cc1	3.46 µM	8.7 µM
COC(=O)c1cncc(/C=C/c2c(C)cc(O)cc2C)c1	4.32 µM	12.6 µM
CC(=O)NCc1cccc(C#Cc2cncnc2Nc2ccc(OCc3cccc(F)c3)c(Cl)c2)c1	1.29 µM	6.29 µM
NS(=O)(=O)c1ccc(-c2cc3ccncc3cc2OCc2ccccc2)cc1	13.4 µM	> 25 µM
CN(CCNCc1ccccn1)CCNCc1ccccn1	2.71 µM	7.93 µM
Cc1ccc(-c2nc([P+](c3ccccc3)(c3ccccc3)c3ccccc3)c(S(=O)(=O)c3ccc(C)cc3)o2)cc1	1.03 µM	2.6 µM
Oc1c(I)cc(I)c2cccnc12	7.01 µM	30.3 µM
CC1OC(OC2C(O)CC(OC3C(O)CC(OC4CCC5(C)C(CCC6C5CC(O)C5(C)C(C7=CC(=O)OC7)CCC65O)C4)OC3C)OC2C)CC(O)C1O (configuration not stated)	0.159 µM	0.364 µM
C[C@]12CC[C@@H]3c4cc(OC(F)F)c(OS(N)(=O)=O)cc4CC[C@H]3[C@@H]1CC[C@@H]2O	0.244 µM	1.42 µM
Cc1cccc2c3c(sc12)C(c1ccc(Cl)cc1)C(C#N)=C(N)O3 (configuration not stated)	0.277 µM	3.75 µM
c1ccc2c(c1)Nc1ccncc1S2	18.9 µM	50.8 µM
c1ccc2cc(-c3n(Cc4ccc5ccccc5n4)c4ccccc4[n+]3Cc3ccc4ccccc4n3)ccc2c1	0.116 µM	0.529 µM
O=C(CCCCCCN1CC(=O)N2[C@@H](c3ccc(Cl)c(Cl)c3)c3[nH]c4ccccc4c3C[C@H]2C1=O)NO	1.89 µM	7.42 µM
Cn1cc(C2=C(c3cccc(OC[C@@H](O)CO)c3)C(=O)NC2=O)c2ccccc21	> 25 µM	> 25 µM
COc1ccc(C(=O)c2c(N)c(C#N)cn2-c2cccc(OC)c2)cc1	1.12 µM	4.23 µM
N#CCCN1C/C(=C/c2ccc(Cl)cc2)C(=O)/C(=C/c2ccc(Cl)cc2)C1	1 µM	2.89 µM

Compound	GI50	TGI
C/C(=C\c1cnc(C)s1)[C@@H]1C[C@@H]2O[C@@H]2CCC[C@H](C)[C@H](O)[C@@H](C)C(=O)C(C)(C)[C@@H](O)CC(=O)O1	< 0.01 µM	1.81 µM
O=C(CC1(O)C(=O)N(Cc2ccccc2)c2ccccc21)c1ccc(C(=O)NCC2CCC3(CC2)OOC2(CCCCC2)OO3)cc1 (configuration not stated)	1.49 µM	3.31 µM
CC1=C(CC(=O)c2cccc([N+](=O)[O-])c2)C(=O)c2ccccc2C1=O	1.77 µM	5.9 µM
O=C(N/N=C/c1ccco1)c1[nH]c2ccc(Br)cc2c1-c1ccccc1	0.22 µM	2.4 µM
C=CCN1CC(=O)N2[C@@H](Cc3ccc(O)cc3F)C(=O)N(Cc3cccc(N4CC(N5CCN(CC)CC5)C4)n3)C[C@@H]2N1C(=O)NCc1ccccc1	0.232 µM	> 100 µM
Cc1cc(N(CCCNc2ccnc3cc(Cl)ccc23)Cc2ccco2)nc(N2CCN(C)CC2)n1	1.81 µM	4.32 µM
Cc1cc(C#Cc2ccc(C(C)(C)C)cc2)ccc1-n1c(/C=C/c2ccc(O)cc2O)nc2ccccc2c1=O	2.2 µM	6.5 µM
Nc1nc(Nc2ccccc2SSc2ccccc2Nc2nc(N)nc(C(Cl)(Cl)Cl)n2)nc(C(Cl)(Cl)Cl)n1	4.7 µM	29.1 µM
C(=N/N(Cc1ccccc1)Cc1ccccc1)/c1ccccc1	> 100 µM	> 100 µM
O=C1OC(C(O)CO)C(O)=C1O (configuration not stated)	1820 µM and 2020 µM	3760 µM and 4400 µM
CCc1cccc(C)c1NC(=O)c1sc2nc3c(cc2c1N)C(=O)CCC3	0.377 µM	60.5 µM
COc1ccc(-c2nc(/C=C3\SC(=NCc4ccccc4)NC3=O)c3ccccn23)cc1	1.9 µM	4.39 µM
N#CC1=C(/N=C/c2ccccc2)Oc2c(ccc3ccccc23)C1c1ccccc1 (configuration not stated)	0.247 µM	0.741 µM
COc1ccc(/C=C(\C#N)n2nnc3c(F)cccc32)cc1	1.58 µM	6.67 µM
COc1cc(/C=C/C(=O)c2cccc(-n3cc(-c4ccc(Cl)cc4)[nH]c3=O)c2)cc(OC)c1OC	12.8 µM	34.7 µM
COc1ccc(N(CC(=O)NCCC[Te]c2ccccc2)C(=O)CNC(=O)OC(C)(C)C)cc1	3.2 µM	10.9 µM
O=C(Nc1cccc(-n2cc(-c3ccncc3)c(-c3cc(O)cc(Cl)c3)n2)c1)c1cc(C(F)(F)F)cc(C(F)(F)F)c1	3.1 µM	> 100 µM
O=[N+]([O-])c1ccc(N2CCOCC2)c2c1no[n+]2[O-]	0.769 µM	2.83 µM
Oc1cccc2ccc(N/N=C/c3cc(CN4CCOCC4)c(O)c4ncccc34)nc12	0.0302 µM	0.289 µM
CSc1nc2sc3c(c2c(=O)n1-c1ccc(C(C)C)cc1)CCC(=O)C3	2.16 µM	5.99 µM
COC(=O)[C@H]1CCCN1C(=O)[C@H]1CCCN1C(=O)[C@@H](Cc1c[nH]c2ccccc12)NC(=S)Nc1cc(C(F)(F)F)cc(C(F)(F)F)c1	2.26 µM	5.9 µM
COc1cc2c(cc1OCCCCN1CCN(C(=S)SCCC(C#N)(c3ccccc3)c3ccccc3)CC1)N=C[C@@H]1CCCN1C2=O	0.499 µM	31.4 µM
COc1cc2nc(-c3cc(F)ccc3O)nc(N[C@@H]3CNC[C@H]3C(C)(C)O)c2cc1OC	1.64 µM	3.12 µM
